Results: patent US20040024033A1 (priority 1998, published 2004)
Read-outs that look alike come from different tables or passages of the source.

How the values were obtained:
[1] = Determination of the single i.v. dose MTD in nude mice; format: in vivo, female BALB/c nude mice; details: mean ± SD
Protocol: For the MTD determination, female BALB/c nude mice or BALB/c mice (obtained from Novartis Animal Farm, Sisseln, Switzerland) are treated once intravenously with epothilone B (n=3 per dose group). The dosage is increased (2, 4, 6, 8, 10 and 12 mg/kg) and the mice are observed for the presentation of overt toxic effects for 10 days after drug treatment.
Epothilone B is given as a single i.v. bolus dose at 2, 4, 6, 8, 10 or 12 mg/kg. Survival and body weights of the mice are monitored daily. Changes (A) in body weights are determined comparing the last measured body weight to that before treatment.

[2] = tested on: A549 non-small cell lung tumors; format: in vivo, outbred athymic (nu/nu) mice; details: for % T/C / Dead/Total: extended observation, day 48
Protocol: Materials and methods pertaining to the human tumor xenograft model are as previously described.
Measurements are taken for an additional 2 weeks after completion of the regular 3 weeks experiments, to evaluate reversibility of drug-induced body weight loss, and sustainability of antitumor effects.
Treatments are started on day 13 post implantation (10 million cells/animal). Epothilone B is administered i.v. once weekly for 3 weeks (days 13, 20, and 27) at doses of 1, 2, 3, and 3.5 mg/kg. […] Final data are recorded on day 34. A single asterisk (*) indicates p<0.05 using a one-tailed Student's t-Test, and a double asterisk (**) indicates p<0.05 using a Dunnett's or Dunn's test.
Measurements for the experiment described in Table 1 are extended by additional two weeks. Final data are recorded on day 48. A single asterisk (*) indicates p<0.05 using a one-tailed Student's t-Test, and a double asterisk (**) indicates p<0.05 using a Dunneff's or Dunn's test.

[3] = tested on: A549 non small cell lung tumors
Protocol: 3-10 million cells are implanted s.c. into the right axillary (lateral) region of outbred athymic (nu/nu) mice, and are allowed to grow until a tumor volume of approximately 100 mm^3 is established. Epothilone B is formulated in 1% DMSO in 5% glucose in distilled water (D5W), and administered i.v. either once only, once per week, 3 times per week, or 5 times per week. Positive controls are carried out with clinical formulations of TAXOL® diluted 6 fold with D5W and administered i.v. 3×/week.
Antitumor activity is expressed as % T/C (comparing Δ tumor volumes for treatment group to vehicle control group) at the end of the experiment. Regressions are calculated using the formula: −(T/T0−1)×100% , where T is the tumor volume for the treatment group at the end of the experiment, and T0 is the tumor volume at the beginning of the experiment. Statistical significance is evaluated using a one-tailed Student's t-test.
Treatments are started on day 16 post implantation (10 million cells/animal). Epothilone B is administered i.v. once at 6 mg/kg (day 16), once weekly at 4 mg/kg (days 16, 23, and 30), three times per week at 1.5 mg/kg (days 16, 18, 21, 23, 25, 28, 30, 32, and 35), or five times per week at 0.5 mg/kg (days 16-18, 21-25, 28-32, and 35-36). TAXOL® is administered i.v. three times per week at 20 mg/kg (days 16, 18, 21, 23, 25, 28, 30, 32, and 35) as split doses of 10 mg/kg given one hour apart. Vehicle control (1% DMSO/D5W) is administered i.v. three times per week (days 16, 18, 21, 23, 25, 28, 30, 32, and 35). All final data are recorded on day 37. A single asterisk (*) indicates p<0.05, and a double asterisk (**) indicates p<0.01, using a one-tailed Student's t-Test.

[4] = 1 mg/kg i.v. once weekly for 3 weeks
[5] = 2 mg/kg i.v. once weekly for 3 weeks
[6] = 3 mg/kg i.v. once weekly for 3 weeks
[7] = 3.5 mg/kg i.v. once weekly for 3 weeks

Which results are given for C/C(=C\c1csc(C)n1)[C@@H]1C[C@@H]2O[C@]2(C)CCC[C@H](C)[C@H](O)[C@@H](C)C(=O)C(C)(C)[C@@H](O)CC(=O)O1 [epothilone B]?
Body Weight Δ ([1]; 2 mg/kg single i.v. bolus): 1.0 ± 0.5 g; Body Weight Δ ([1]; 4 mg/kg single i.v. bolus): -0.4 ± 0.6 g; Body Weight Δ ([1]; 6 mg/kg single i.v. bolus): -1.0 ± 0.5 g; Body Weight Δ ([1]; 8 mg/kg single i.v. bolus): -3.8 ± 2.7 g; Body Weight Δ ([1]; 10 mg/kg single i.v. bolus): -5.6 ± 3.3 g; Body Weight Δ ([1]; 12 mg/kg single i.v. bolus): -5.1 ± 0.6 g; % T/C [2, 4]: 72%; Dead/Total [2, 4]: 0/8; % T/C [2, 5]: 49%; Dead/Total [2, 5]: 0/8; % T/C [2, 6]: 16%; Dead/Total [2, 6]: 0/8; % T/C [2, 7]: 12%; Dead/Total [2, 7]: 0/8; body weight loss ([2]; 3.5 and 3 mg/kg i.v. once weekly, reversible): approximately 15%; body weight loss ([3]; 0.5 mg/kg i.v. 5x/week): 23%; Dead/Total ([3]; 1.5 mg/kg i.v. 3x/week): all animals have to be euthanatized in the first week of the experiment due to toxicity; body weight loss ([3]; 4 mg/kg i.v. 1x/week): 13%; % Regression ([3]; 6 mg/kg i.v. once, day 37): none; % T/C ([3]; 6 mg/kg i.v. once, day 37): 41%; Dead/Total ([3]; 6 mg/kg, i.v. once): 0/8
